Data from US6673746B1, “Virulence enhancement of bioherbicides” (priority 1999, dated 2004).

Legend:
Fusarium oxysporum = type: cell-based; settings: 0.5 ml of 1000 :g/ml analog in well, minimal medium, 28° C.
Experimental: Mutant selection. The inhibitory effect of valine and valine analogs was tested against the selected Fusarium spp., using a well zone-diffusion assay on a minimal medium. Seven available valine analogs were tested. The gradient plates were prepared as follows: Minimal media was poured into Petri dishes, then a disk (diameter=10 mm) of the solidified medium was cut out (with number 5 cutter) from the center of the plate and filled with the sterile solution of an analog (0.5 ml of a 1000 :g/ml of analog in sterile distilled H2O). The solution was gradually applied to the well and the plates were allowed to dry and form a gradient under the hood for 24 hours. A Fusarium oxysporum microconidia suspension of 10^7 sp/ml was obtained by washing a 10-14 day fungal culture grown on minimal medium (with nitrate) with 10 ml of sterile H2O. Five hundred :1 of the spore suspension was thoroughly spread across the plate with a glass rod. These plates were then incubated at 28° C.

Cannabis sativa = type: in vivo
Experimental: (§1) Amino Acid Toxicity Tests on Plants. Germinated seeds of Cannabis sativa, Papaver somniferum, and Nicotiana tobaccum were transferred to minimal medium (3% Sucrose (w/v), 1.7 g/l Yeast extract base without amino acids (Difco Laboratories, Detroit, Mich.), 16 g/l Ultrapure Agar (USB, Cleveland, Ohio)) supplemented with increasing concentrations of amino acids. Each amino acid was supplemented at eight concentrations (0 mM, 0.01 mM, 0.1 mM, 0.5 mM, 1 mM, 2 mM, 3 mM, 4 mM), and each treatment was replicated six times. Five pregerminated seeds were placed on each plate, per replication. Plates were incubated at ambient temperature with 12-hour diurnal period for two weeks. The fresh weight per seedling was calculated at the end of the experiment.

Papaver somniferum = assay: Amino acid toxicity test on plants, Papaver somniferum seedlings; type: in vivo; settings: for reduction of fresh weight of P. somniferum seedlings: 1 mM; for inhibition of P. somniferum seedling growth compared with the other amino acids: in vivo; for reduction of fresh weight of P. somniferum seedlings vs control: 0.1 mM
Experimental: as §1

Nicotiana tobaccum = assay: Amino acid toxicity test on plants, tobacco seedlings; type: in vivo; settings: 0.1 mM on agar media
Experimental: as §1

Compound: CCC(C)C(=O)C(=O)O (racemic) [DL-α-keto-β-methyl valeric acid]
- inhibitory effect on strains of F. oxysporum (Fusarium oxysporum): not inhibitory

Compound: CC[C@H](N)C(=O)O [L-amino-n- butyric acid]
- inhibitory effect on strains of F. oxysporum (Fusarium oxysporum): not inhibitory

Compound: CC(C)[C@H](N)C(N)=O [L-valine amide]
- inhibitory effect on strains of F. oxysporum (Fusarium oxysporum): not inhibitory

Compound: CC(C)[C@H](N)C(=O)NO [L-valine hydroxamate]
- inhibitory effect on strains of F. oxysporum (Fusarium oxysporum): not inhibitory

Compound: CC(C)[C@H](N)CO [L-valinol]
- inhibitory effect on strains of F. oxysporum (Fusarium oxysporum): not inhibitory

Compound: CCC[C@H](N)C(=O)O [Norvaline]
- inhibitory effect on strains of F. oxysporum (Fusarium oxysporum): inhibitory

Compound: CC(C)(S)[C@@H](N)C(=O)O [penicillamine]
- inhibitory effect on strains of F. oxysporum (Fusarium oxysporum): inhibitory

Compound: N[C@@H](Cc1ccccc1)C(=O)O [phenylalanine]
- reduction of fresh weight of C. sativa seedlings vs control (Cannabis sativa; 0.1 mM in minimal medium): 40-45%
- reduction of fresh weight of P. somniferum seedlings (Papaver somniferum): 20%
- inhibition of P. somniferum seedling growth compared with the other amino acids (Papaver somniferum): less inhibitory
- reduction of fresh weight of tobacco seedlings vs control (Nicotiana tobaccum): 20%

Compound: N[C@@H](Cc1c[nH]c2ccccc12)C(=O)O [tryptophan]
- reduction of fresh weight of P. somniferum seedlings (Papaver somniferum): 20%
- inhibition of P. somniferum seedling growth compared with the other amino acids (Papaver somniferum): less inhibitory
- reduction of fresh weight of tobacco seedlings vs control (Nicotiana tobaccum): 20%

Compound: N[C@@H](Cc1ccc(O)cc1)C(=O)O [tyrosine]
- reduction of fresh weight of C. sativa seedlings (Cannabis sativa; 1 mM in minimal medium): 25-30%
- inhibition of C. sativa seedlings compared with the other amino acids (Cannabis sativa; in vivo): less inhibitory than other amino acids tested
- reduction of fresh weight of P. somniferum seedlings vs control (Papaver somniferum): about 40%
- reduction of fresh weight of tobacco seedlings vs control (Nicotiana tobaccum): 50-60%

Compound: CC(C)[C@H](N)C(=O)O [valine]
- reduction of fresh weight of C. sativa seedlings vs control (Cannabis sativa; 0.1 mM in minimal medium): 50%
- fresh weight of C. sativa seedlings relative to control seedlings (Cannabis sativa; 0.1 mM in minimal medium, two weeks): half of the control
- concentration at which inhibitory effects on growth of C. sativa seedlings start (Cannabis sativa; minimal media with nitrate): 0.1 mM
- reduction of fresh weight of P. somniferum seedlings vs control (Papaver somniferum): about 60%
